The values that follow come from patent publication US5827845A, “Cephalosporin derivative” (priority 1993, dated 1998).

The structures appear in SMILES notation.

For data set [1], the system named is Enterococcus hirae ATCC 8043. In words: minimum growth inhibitory concentration, serial dilution method. The class given is cell-based. To be noted: sodium salts, 35° C., 18-20 hours; for MIC: Enterococcus hirae, ATCC8043, Enterococcus hirae ATCC 8043, read-out: Minimum growth inhibition concentrations (MIC). The method, then:
(§1) The determination of MIC. was conducted by inoculating the test microorganism to an incubation medium N for sensitive disc (a product of Nissui Seiyaku Co., Japan), effecting the incubation at 35° C. for 18-20 hours and then estimating the growth of the bacteria. The compounds tested were the sodium salts of Compound A to Compound F indicated below:
(§2) For the comparison purpose, the values similarly determined of MIC. ([…]) of ME1206 compound (sodium salt), Cefdinir (sodium salt) (abbreviated as CFDN) and Cefixime (sodium salt) (abbreviated as CFIX) are also shown in Table 1.

Data set [2] has as its system Escherichia coli GN 206. The data set is described as above. In kind it is cell-based. To be noted: sodium salts, 35° C., 18-20 hours; for MIC: Escherichia coli, GN206, Escherichia coli GN 206, read-out: Minimum growth inhibition concentrations (MIC). The method, then: as §1, §2
Data set [3] deals with Enterobacter cloacae G-0008. The description is as above. In kind it is cell-based. To be noted: 35° C., 18-20 hours; for MIC: G0008, sodium salts, read-out: Minimum growth inhibition concentrations (MIC). On the procedure: as §1, §2
In data set [4] the test system is Staphylococcus aureus 209P JC-1. The data set is described as above. In kind it is cell-based. To be noted: S. aureus 209P JC-1, sodium salts, 35° C., 18-20 hours; for MIC: Staphylococcus aureus, 209P, read-out: Minimum growth inhibition concentrations (MIC). On the procedure:
as §1, §2

The test system of data set [5] is Staphylococcus aureus M133*. The data set is described as above. The class given is cell-based. Particulars: S. aureus M133, methicillin-resistant (MRSA), sodium salts, 35° C., 18-20 hours; for MIC: Staphylococcus aureus, MRSA, read-out: Minimum growth inhibition concentrations (MIC). On the procedure: as §1, §2
Data set [6] deals with Morganella morganii 1510. The data set is described as above. To be noted: sodium salts, 35° C., 18-20 hours; for MIC: Morganella morganii, 1510, Morganella morganii 1510, read-out: Minimum growth inhibition concentrations (MIC). The class given is cell-based. The method, then:
as §1, §2

The test system of data set [7] is Staphylococcus aureus M126*. The description is as above. The class given is cell-based. Particulars: S. aureus M126, methicillin-resistant (MRSA), sodium salts, 35° C., 18-20 hours; for MIC: Staphylococcus aureus, read-out: Minimum growth inhibition concentrations (MIC). On the procedure:
as §1, §2

For data set [8], the system named is Enterococcus faecalis W-73. Described as above. The class given is cell-based. Particulars: sodium salts, 35° C., 18-20 hours; for MIC: Enterococcus faecalis, W73, Enterococcus faecalis W-73, read-out: Minimum growth inhibition concentrations (MIC); for Minimum growth inhibition concentrations (MIC): Enterococcus faecalis W-73. The method, then: as §1, §2
The subject of data set [9] is Serratia marcescens No. 1. The description is as above. The class given is cell-based. To be noted: sodium salts, 35° C., 18-20 hours; for MIC: read-out: Minimum growth inhibition concentrations (MIC). On the procedure:
as §1, §2

Data set [10] is described as follows: blood concentration pharmacokinetics after subcutaneous injection in mice. Particulars: for concentration in blood (in words): injected subcutaneously, mice; for half-life / AUC: mouse, serum, sc, 0.5 mg; for AUC: read-out: AUC (area under the plasma concentration-time curve). In kind it is in vivo, mice (Jcl;ICR strain). The method, then: The test procedure used was as follows: Thus, to mice of Jcl;ICR strain (4 week-aged, male) each was administered subcutaneously an aqueous solution containing 2.5 mg/ml of a test compound dissolved in distilled water sterilized for injections, in such a way that 0.2 ml of said aqueous solution (corresponding to a dosage of the test compound of 0.5 mg per mouse) was injected to one mouse. At the time-points of 5, 15, 30, 60 and 120 minutes after the administration, the blood samples were collected from the armpit of mouse. The blood samples so collected were each allowed to stand for about 2 hours at room temperature and then centrifuged for 10 minutes in a centrifugal separator to recover the serum. The serum obtained was mixed well with an equal volume of methanol added thereto, and the resulting mixture was centrifuged at 12,000 rpm. for 3 minutes. The supernatant obtained was passed through a filter (Sumplep LCR-13-LH) to obtain the serum sample to be assayed by a high performance liquid chromatography (HPLC). This serum sample was assayed by HPLC to measure quantitatively the concentration of the test compound in the serum.
For each test compound, its half-life value in blood and its AUC (Area under the plasma concentration-time curve),which are the pharmacokinetic parameters, were evaluated according to the method of Gauss-Newton.
For the comparison purpose, the ME1206 compound was also tested in the same manner as above.

Where [11] appears, read: sodium salt, subcutaneous, 0.5 mg per mouse, HPLC of serum.

As to `C=CC1=C(C(=O)O)N2C(=O)[C@@H](NC(=O)/C(=N\OCC(=O)O)c3csc(N)n3)[C@H]2SC1` [CFIX, Cefixime, reference compound], the MIC in data set [1] was greater than 100 µg/mL; in [2], 50 µg/mL; in data set [3], 0.78 µg/mL; in [4], 12.5 µg/mL; in data set [5] it was 100 µg/mL; in [6], 50 µg/mL. Further, the figures for the MIC in data set [7], in [8] and in data set [9] were greater than 100 µg/mL, greater than 100 µg/mL and 0.78 µg/mL, respectively.
For the compound `Nc1nc(C(=NO)C(=O)NC2C(=O)N3C(C(=O)O)=C(C=Cc4cncs4)CSC23)cs1` (stereo not drawn) [Compound E, 7-[2-Hydroxyimino-2-(2-aminothiazol-4-yl)acet-amido]-3-[2-(thiazol-5-yl)vinyl]-3-cephem-4-carboxylic acid (syn-isomer, trans-isomer)], the “concentration in blood (in words)” value in [10] is “capable of maintaining a high concentration in blood”. In addition, the half-life in [10] (setting [11]) was 1.1 h. Further, in data set [10] (setting [11]), the AUC was 253 µg·h/mL. For the same compound, the “Minimum growth inhibition concentrations (MIC)” value is 25 µg/mL in [1] (Enterococcus hirae ATCC 8043); 0.78 µg/mL in data set [2] (Escherichia coli GN 206); 0.78 µg/mL in [3] (sodium salts); 0.20 µg/mL in data set [4]; 6.25 µg/mL in data set [5]; 6.25 µg/mL in data set [6] (Morganella morganii 1510). Further, the “Minimum growth inhibition concentrations (MIC)” value was 25 µg/mL in data set [7], 3.13 µg/mL in [8] and 0.78 µg/mL in data set [9].
Consider `Cc1ncsc1C=CC1=C(C(=O)O)N2C(=O)C(NC(=O)C(=NO)c3csc(N)n3)C2SC1` (stereo not drawn) [Compound C, 7-[2-Hydroxyimino-2-(2-aminothiazol-4-yl)acet-amido]-3-[2-(4-methylthiazol-5-yl)vinyl]-3-cephem-4-carboxylic acid (syn-isomer, cis-isomer)], for which, in [10], the “concentration in blood (in words)” value was “capable of maintaining a high concentration in blood”. The half-life in data set [10] (setting [11]) was 1.4 h. For the same compound, in [10] (setting [11]), the AUC was determined as 249 µg·h/mL. The “AUC (area under the plasma concentration-time curve)” value in data set [10] (setting [11]) stood at 315.5 µg·h/mL. Further, the “Half-life value in blood” value in [10] (setting [11]) is 1.7 h. Besides, the MIC in data set [1] was found to be 6.25 µg/mL; in data set [2], 3.13 µg/mL; in data set [3], 0.78 µg/mL; in data set [4], 0.2 µg/mL; in data set [5], 6.25 µg/mL; in data set [6], 1.56 µg/mL. The MIC in data set [7] is 25 µg/mL; in [8], 12.5 µg/mL; in data set [9], 1.56 µg/mL.
As to `CON=C(C(=O)NC1C(=O)N2C(C(=O)O)=C(C=Cc3scnc3C)CSC12)c1csc(N)n1` (stereo not drawn) [ME1206, 7-[2-methoxyimino-2-(2-aminothiazol-4-yl)acetamido]-3-[2-(4-methylthiazol-5-yl)vinyl]-3-cephem-4-carboxylic acid (syn-isomer, cis-isomer), reference compound], the half-life in [10] (setting [11]) is 1.1 h. Also, the AUC in data set [10] (setting [11]) was determined as 184 µg·h/mL. In addition, the MIC in data set [1] is 50 µg/mL; in [2], 0.78 µg/mL; in data set [3], 1.56 µg/mL; in data set [4], 0.39 µg/mL; in data set [5], 25 µg/mL; in data set [6], 25 µg/mL. For the same compound, the values for the MIC in data set [7], in [8] and in data set [9] were 100 µg/mL, 100 µg/mL and 0.39 µg/mL, respectively.
Turning to `Nc1nc(C(=NO)C(=O)NC2C(=O)N3C(C(=O)O)=C(C=Cc4cncs4)CSC23)cs1` (stereo not drawn) [Compound D, 7-[2-Hydroxyimino-2-(2-aminothiazol-4-yl)acet-amido]-3-[2-(thiazol-5-yl)vinyl]-3-cephem-4-carboxylic acid(syn-isomer, cis-isomer)], in [10], the “concentration in blood (in words)” value was “capable of maintaining a high concentration in blood”. The MIC in [1] came to 12.5 µg/mL; in [2], 1.56 µg/mL; in [3] it was 0.78 µg/mL; in data set [4] it was 0.1 µg/mL; in data set [5], 3.13 µg/mL; in data set [6], 12.5 µg/mL. The MIC was 25 µg/mL in data set [7] and 0.78 µg/mL in data set [9]. Also, in data set [8], the “Minimum growth inhibition concentrations (MIC)” value worked out at 1.56 µg/mL.
For the compound `Nc1nc(C(=NO)C(=O)NC2C(=O)N3C(C(=O)O)=C(C=Cc4scnc4C(F)(F)F)CSC23)cs1` (stereo not drawn) [Compound B, 7-[2-Hydroxyimino-2-(2-aminothiazol-4-yl)acet-amido]-3-[2-(4-trifluoromethylthiazol-5-yl)vinyl]-3-cephem-4-carboxylic acid (syn-isomer, cis-isomer)], the “concentration in blood (in words)” value in data set [10] is “capable of maintaining a high concentration in blood”. Further, the half-life in [10] (setting [11]) is 0.7 h. Further, the AUC in [10] (setting [11]) worked out at 149 µg·h/mL. Besides, the MIC came to 6.25 µg/mL in data set [1]; 1.56 µg/mL in data set [2]; 1.56 µg/mL in data set [3]; 0.39 µg/mL in data set [4]; 6.25 µg/mL in [5]; 1.56 µg/mL in [6]. Moreover, the MIC in data set [7] came out at 25 µg/mL; in data set [8], 12.5 µg/mL; in data set [9], 1.56 µg/mL.
Consider `Cc1ncsc1C=CC1=C(C(=O)O)N2C(=O)C(NC(=O)C(=NO)c3nsc(N)n3)C2SC1` (stereo not drawn) [Compound F, 7-[2-Hydroxyimino-2-(5-amino-1,2,4-thiadiazol-3-yl)acetamido]-3-[2-(4-methylthiazol-5-yl)vinyl]-3-cephem-4-carboxylic acid (syn-isomer, cis-isomer)], for which the “concentration in blood (in words)” value in data set [10] was “capable of maintaining a high concentration in blood”. In data set [10] (setting [11]), the half-life was 0.9 h. Further, the AUC in data set [10] (setting [11]) amounted to 163 µg·h/mL. The MIC in [1] amounted to 25 µg/mL; in data set [2], 6.25 µg/mL; in [3], 1.56 µg/mL; in data set [4], 0.39 µg/mL; in [5], 3.13 µg/mL; in data set [6], 25 µg/mL. Moreover, the figures for the MIC in data set [7], in data set [8] and in [9] were 50 µg/mL, 25 µg/mL and 3.13 µg/mL, respectively.
Consider `C=CC1=C(C(=O)O)N2C(=O)[C@@H](NC(=O)/C(=N\O)c3csc(N)n3)[C@H]2SC1` [CFDN, Cefdinir, reference compound], for which the MIC in data set [1] was 50 µg/mL; in data set [2], 25 µg/mL; in data set [3], 6.25 µg/mL; in data set [4], 0.2 µg/mL; in [5], 6.25 µg/mL; in data set [6], 25 µg/mL. Also, the MIC was greater than 100 µg/mL in [7], 25 µg/mL in [8] and 25 µg/mL in data set [9].

As a reminder, the half-life is how long it takes for the measured level to halve.
